Laboratory results reported in patent publication US20170071944A1, “MODULATORS OF TOLL-LIKE RECEPTORS FOR THE TREATMENT OF HIV” (Gilead Sciences, Inc., priority 2015, published 2017).

Tested on: immune cell subsets in PBMC cultures from HIV-1 infected subjects on cART
Assay: Induced immune cell activation in PBMC cultures from HIV-1 infected subjects on cART (flow cytometry)
Type: cell-based, human
Settings: for B Cells CD69 % / B Cells CD69 Fold vs DMSO / B Cells CD80 % / B Cells CD80 Fold vs DMSO / DCs CD69 % / DCs CD69 Fold vs DMSO / DCs CD80 % / DCs CD80 Fold vs DMSO / CD4+ T Cells CD25 % / CD4+ T Cells CD25 Fold vs DMSO / CD4+ T Cells CD69 % / CD4+ T Cells CD69 Fold vs DMSO / CD4+ T Cells Perforin % / CD4+ T Cells Perforin Fold vs DMSO / CD8+ T Cells CD25 % / CD8+ T Cells CD25 Fold vs DMSO / CD8+ T Cells CD28 % / CD8+ T Cells CD28 Fold vs DMSO / CD8+ T Cells CD38 % / CD8+ T Cells CD38 Fold vs DMSO / CD8+ T Cells CD69 % / CD8+ T Cells CD69 Fold vs DMSO / Monocytes CD11c % / Monocytes CD11c Fold vs DMSO / Monocytes CD69 % / Monocytes CD69 Fold vs DMSO / Monocytes CD80 % / Monocytes CD80 Fold vs DMSO / NK Cells CD25 % / NK Cells CD25 Fold vs DMSO / NK Cells CD69 % / NK Cells CD69 Fold vs DMSO: 2 days, geometric mean; for B Cells CD69 % / B Cells CD69 Fold vs DMSO / B Cells CD80 % / B Cells CD80 Fold vs DMSO / DCs CD69 % / DCs CD69 Fold vs DMSO / DCs CD80 % / DCs CD80 Fold vs DMSO: N = 4; for CD4+ T Cells CD25 % / CD4+ T Cells CD25 Fold vs DMSO / CD4+ T Cells CD69 % / CD4+ T Cells CD69 Fold vs DMSO / CD4+ T Cells Perforin % / CD4+ T Cells Perforin Fold vs DMSO / CD8+ T Cells CD25 % / CD8+ T Cells CD25 Fold vs DMSO / CD8+ T Cells CD28 % / CD8+ T Cells CD28 Fold vs DMSO / CD8+ T Cells CD38 % / CD8+ T Cells CD38 Fold vs DMSO / CD8+ T Cells CD69 % / CD8+ T Cells CD69 Fold vs DMSO / Monocytes CD11c % / Monocytes CD11c Fold vs DMSO / Monocytes CD69 % / Monocytes CD69 Fold vs DMSO / Monocytes CD80 % / Monocytes CD80 Fold vs DMSO / NK Cells CD25 % / NK Cells CD25 Fold vs DMSO / NK Cells CD69 % / NK Cells CD69 Fold vs DMSO: N = 6
Procedure: TLR8 modulating compound affects activation of distinct cell populations, PBMCs were purified from HIV-1 infected subjects on cART, as described in Example 121 (anonymized participant IDs 184, 185, 188, 189, 190, and 191). […] After incubation, PBMCs were harvested and stained with antibodies conjugated to specific fluorophores (BD Biosciences) to delineate immune cell subsets: CD4 T cells (CD3+ CD4+ CD8-), CD8 T cells (CD3+ CD8+ CD4-), NK cells (CD3-CD56+ CD16+), monocytes (CD3-CD14+), B cells (CD3-CD19+), and peripheral dendritic cells (DCs), defined as positive for HLA-DR and negative for a panel of markers: CD3, CD14, CD16, CD19, CD20, CD56 (Lin-1 lineage panel, BD Biosciences).
Additional markers of activation, maturation, and effector function were included for cell subsets, as follows: CD4 and CD8 T cells (CD25, CD38, CD69, IFN-γ, granzyme B, perforin, TNF-α), NK cells (CD25, CD69, IFN-γ), monocytes (CD11c, CD16, CD80, CD86, CD163, TNF-α), B cells (CD40, CD69, CD80, CD86), and DC (CD11c, CD69, CD80, CD86, CD123, and CD163). Cells were stained for surface markers (CD3, CD4, CD8, CD11c, CD14, CD16, CD25, CD69, CD80, CD86, CD163), washed, treated with fixation and permeabilization buffer (eBioscience), and stained for intracellular markers (IFN-γ, granzyme B, perforin, TNF-α). Cells were evaluated by flow cytometry on a LSR Fortessa (BD Biosciences), and data was analyzed with FlowJo software (TreeStar).
Data are expressed as geometric mean percentage (%) and as geometric mean fold-activation (Fold) for each marker and for each PBMC subset obtained from 4 or 6 subjects, as indicated. Fold activation is calculated as a ratio of the % positive for each marker for each PBMC subset at the indicated concentration of the compound of Example 15 relative to % positive for DMSO treated samples. Fold activations that are 1.5 are in bold.

CCCC[C@H](CO)Nc1nc(N)nc2cccnc12 [Example 15]
Perforin in CD8+ T cells with treatment: did not increase
B Cells CD69 % (Example 15 10 nM): 10.0%
B Cells CD69 Fold vs DMSO (Example 15 10 nM): 1.2 fold
B Cells CD80 % (Example 15 10 nM): 2.6%
B Cells CD80 Fold vs DMSO (Example 15 10 nM): 1.6 fold
DCs CD69 % (Example 15 10 nM): 0.3%
DCs CD69 Fold vs DMSO (Example 15 10 nM): 0.1 fold
DCs CD80 % (Example 15 10 nM): 49.8%
DCs CD80 Fold vs DMSO (Example 15 10 nM): 1.8 fold
CD4+ T Cells CD25 % (Example 15 10 nM): 1.5%
CD4+ T Cells CD25 Fold vs DMSO (Example 15 10 nM): 0.6 fold
CD4+ T Cells CD69 % (Example 15 10 nM): 5.7%
CD4+ T Cells CD69 Fold vs DMSO (Example 15 10 nM): 0.7 fold
CD4+ T Cells Perforin % (Example 15 10 nM): 11.8%
CD4+ T Cells Perforin Fold vs DMSO (Example 15 10 nM): 1.5 fold
CD8+ T Cells CD25 % (Example 15 10 nM): 0.2%
CD8+ T Cells CD25 Fold vs DMSO (Example 15 10 nM): 0.6 fold
CD8+ T Cells CD28 % (Example 15 10 nM): 0.1%
CD8+ T Cells CD28 Fold vs DMSO (Example 15 10 nM): 0.9 fold
CD8+ T Cells CD38 % (Example 15 10 nM): 25.3%
CD8+ T Cells CD38 Fold vs DMSO (Example 15 10 nM): 0.9 fold
CD8+ T Cells CD69 % (Example 15 10 nM): 3.7%
CD8+ T Cells CD69 Fold vs DMSO (Example 15 10 nM): 0.8 fold
Monocytes CD11c % (Example 15 10 nM): 0.4%
Monocytes CD11c Fold vs DMSO (Example 15 10 nM): 0.6 fold
Monocytes CD69 % (Example 15 10 nM): 0.8%
Monocytes CD69 Fold vs DMSO (Example 15 10 nM): 0.3 fold
Monocytes CD80 % (Example 15 10 nM): 33.0%
Monocytes CD80 Fold vs DMSO (Example 15 10 nM): 1.1 fold
NK Cells CD25 % (Example 15 10 nM): 0.2%
NK Cells CD25 Fold vs DMSO (Example 15 10 nM): 0.4 fold
NK Cells CD69 % (Example 15 10 nM): 0.8%
NK Cells CD69 Fold vs DMSO (Example 15 10 nM): 0.4 fold
B Cells CD69 % (Example 15 100 nM): 3.9%
B Cells CD69 Fold vs DMSO (Example 15 100 nM): 0.5 fold
B Cells CD80 % (Example 15 100 nM): 1.7%
B Cells CD80 Fold vs DMSO (Example 15 100 nM): 1.1 fold
DCs CD69 % (Example 15 100 nM): 1.0%
DCs CD69 Fold vs DMSO (Example 15 100 nM): 0.4 fold
DCs CD80 % (Example 15 100 nM): 67.2%
DCs CD80 Fold vs DMSO (Example 15 100 nM): 2.4 fold
CD4+ T Cells CD25 % (Example 15 100 nM): 3.9%
CD4+ T Cells CD25 Fold vs DMSO (Example 15 100 nM): 1.7 fold
CD4+ T Cells CD69 % (Example 15 100 nM): 7.7%
CD4+ T Cells CD69 Fold vs DMSO (Example 15 100 nM): 1.0 fold
CD4+ T Cells Perforin % (Example 15 100 nM): 10.4%
CD4+ T Cells Perforin Fold vs DMSO (Example 15 100 nM): 1.3 fold
CD8+ T Cells CD25 % (Example 15 100 nM): 0.3%
CD8+ T Cells CD25 Fold vs DMSO (Example 15 100 nM): 1.0 fold
CD8+ T Cells CD28 % (Example 15 100 nM): 0.1%
CD8+ T Cells CD28 Fold vs DMSO (Example 15 100 nM): 1.1 fold
CD8+ T Cells CD38 % (Example 15 100 nM): 29.2%
CD8+ T Cells CD38 Fold vs DMSO (Example 15 100 nM): 1.0 fold
CD8+ T Cells CD69 % (Example 15 100 nM): 3.4%
CD8+ T Cells CD69 Fold vs DMSO (Example 15 100 nM): 0.7 fold
Monocytes CD11c % (Example 15 100 nM): 3.6%
Monocytes CD11c Fold vs DMSO (Example 15 100 nM): 5.2 fold
Monocytes CD69 % (Example 15 100 nM): 1.8%
Monocytes CD69 Fold vs DMSO (Example 15 100 nM): 0.6 fold
Monocytes CD80 % (Example 15 100 nM): 47.7%
Monocytes CD80 Fold vs DMSO (Example 15 100 nM): 1.6 fold
NK Cells CD25 % (Example 15 100 nM): 0.8%
NK Cells CD25 Fold vs DMSO (Example 15 100 nM): 1.6 fold
NK Cells CD69 % (Example 15 100 nM): 1.1%
NK Cells CD69 Fold vs DMSO (Example 15 100 nM): 0.6 fold
